Measurements as given in patent US10081624B2, “Heterocyclic compound” (Takeda Pharmaceutical Company Limited, priority 2014, dated 2018).

Experiments:
HDAC1 enzyme = biological target: T1, HDAC1 enzyme (Homo sapiens, UniProt Q13547); test: HDAC1 enzyme inhibitory assay (HDAC-Glo I/II Assay kit); format: biochemical; settings: 1 μM test compound; for inhibition at 1 µM: read-out: HDAC1 inhibitory rate (%) (1 μM)
T1 construct: prepared by transducing full length HDAC1 and HDAC6 genes into Sf-9 insect cells; GST; purchased SignalChem; host or cells: Sf-9 insect cells
Description: HDAC1 enzyme and HDAC6 enzyme each prepared by transducing full length HDAC1 and HDAC6 genes into Sf-9 insect cells and purifying by GST affinity column were purchased from SignalChem. Using these enzymes, HDAC1 and/or HDAC6 enzyme inhibitory activities of the compound of the present invention were evaluated. Enzymes were used after preserved at −70° C. HDAC1 or HDAC6 enzyme inhibitory activity of the compound of the present invention was measured using HDAC-Glo™ I/II Assay kit (Promega) according to the following experimental method. The test compound diluted with assay buffer (24 mM Tris-HCl (pH 7.5), 1 mM MgCl2, 0.35 mM KCl, 135 mM NaCl, 0.6 mM Glutathione, 0.01% Tween-20) was added to a 384-well plate by each 2 μL. Then, HDAC1 or HDAC6 enzyme solution diluted with assay buffer was added thereto by each 4 μL, and the plate was incubated at room temperature for 60 min. After incubated, HDAC substrate-Developer solution prepared according to Promega protocol attached to the assay kit was added to the 384-well plate by each 2 μL, and the enzyme reaction was started. After reacting at room temperature for 20 min, luminescence level was measured using plate reader Envision (PerkinElmer). The inhibitory activity of each compound was calculated as a relative activity value when luminescence level in wells without enzyme is considered as 100% inhibition.

HDAC6 enzyme = biological target: T2, HDAC6 enzyme (Homo sapiens, UniProt Q9UBN7); test: HDAC6 enzyme inhibitory assay (HDAC-Glo I/II Assay kit); format: biochemical; settings: 1 μM test compound; for inhibition at 1 µM: read-out: HDAC6 inhibitory rate (%) (1 μM)
T2 construct: prepared by transducing full length HDAC1 and HDAC6 genes into Sf-9 insect cells; GST; purchased SignalChem; host or cells: Sf-9 insect cells
T2 sequence (Q9UBN7 1-1215): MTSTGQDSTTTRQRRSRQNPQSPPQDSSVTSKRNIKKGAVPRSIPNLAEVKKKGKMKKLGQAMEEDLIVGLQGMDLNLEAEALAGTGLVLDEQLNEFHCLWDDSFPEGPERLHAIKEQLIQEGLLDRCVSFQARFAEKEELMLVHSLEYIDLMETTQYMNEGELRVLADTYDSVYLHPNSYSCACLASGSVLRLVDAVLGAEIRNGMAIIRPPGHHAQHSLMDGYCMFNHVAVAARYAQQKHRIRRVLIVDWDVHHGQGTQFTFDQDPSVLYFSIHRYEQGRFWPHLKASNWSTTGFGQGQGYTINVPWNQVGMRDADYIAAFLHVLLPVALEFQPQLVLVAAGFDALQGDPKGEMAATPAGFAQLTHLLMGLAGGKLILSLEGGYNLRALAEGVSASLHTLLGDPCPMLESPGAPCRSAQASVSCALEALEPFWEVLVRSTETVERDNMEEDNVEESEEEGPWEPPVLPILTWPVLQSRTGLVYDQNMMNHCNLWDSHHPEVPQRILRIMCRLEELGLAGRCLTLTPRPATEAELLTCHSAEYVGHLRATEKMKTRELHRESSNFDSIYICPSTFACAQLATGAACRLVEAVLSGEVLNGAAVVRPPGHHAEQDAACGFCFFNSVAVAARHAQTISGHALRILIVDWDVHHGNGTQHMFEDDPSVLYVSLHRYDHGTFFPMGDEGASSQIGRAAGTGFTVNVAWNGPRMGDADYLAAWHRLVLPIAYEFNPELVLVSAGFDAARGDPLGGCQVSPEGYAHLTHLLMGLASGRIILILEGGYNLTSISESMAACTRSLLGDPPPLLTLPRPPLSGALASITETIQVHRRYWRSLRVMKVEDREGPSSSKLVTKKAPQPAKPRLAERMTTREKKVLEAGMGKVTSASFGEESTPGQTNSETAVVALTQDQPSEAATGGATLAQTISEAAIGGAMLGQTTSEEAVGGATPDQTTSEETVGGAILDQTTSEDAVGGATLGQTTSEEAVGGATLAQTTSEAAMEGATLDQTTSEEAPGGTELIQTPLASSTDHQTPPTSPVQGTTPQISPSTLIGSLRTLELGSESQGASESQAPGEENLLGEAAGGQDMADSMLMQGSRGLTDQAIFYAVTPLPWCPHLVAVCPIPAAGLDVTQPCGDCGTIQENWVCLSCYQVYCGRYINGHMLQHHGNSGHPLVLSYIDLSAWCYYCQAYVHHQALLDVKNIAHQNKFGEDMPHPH
How it was run: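 Relative activity was calculated from luminescence, with wells lacking enzyme defined as 100% inhibition. The enzymes were full-length HDAC1 or HDAC6 from Sf-9 cells, preincubated with test compound for 60 min before a 20-min substrate-developer reaction at room temperature.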

T1 sequence (Q13547 whole entry): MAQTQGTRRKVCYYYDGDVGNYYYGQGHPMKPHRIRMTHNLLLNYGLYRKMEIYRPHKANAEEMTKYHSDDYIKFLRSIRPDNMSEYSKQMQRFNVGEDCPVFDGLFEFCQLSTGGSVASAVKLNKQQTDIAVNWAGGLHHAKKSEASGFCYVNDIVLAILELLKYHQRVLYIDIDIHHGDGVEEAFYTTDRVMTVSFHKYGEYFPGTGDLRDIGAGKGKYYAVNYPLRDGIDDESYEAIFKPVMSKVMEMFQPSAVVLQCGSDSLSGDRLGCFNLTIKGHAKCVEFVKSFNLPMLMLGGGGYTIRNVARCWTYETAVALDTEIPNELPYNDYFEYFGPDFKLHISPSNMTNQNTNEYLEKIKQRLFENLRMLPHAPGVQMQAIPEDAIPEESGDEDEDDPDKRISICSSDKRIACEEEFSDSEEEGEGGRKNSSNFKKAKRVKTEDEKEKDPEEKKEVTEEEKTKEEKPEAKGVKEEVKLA

Cc1cc(C(=O)NCC2COCCN2C(=O)c2ccccc2)ccc1-c1noc(C(F)(F)F)n1 (stereo not shown) [Example 179, N-((4-benzoylmorpholin-3-yl)methyl)-3-methyl-4-(5-(trifluoromethyl)-1,2,4-oxadiazol-3-yl)benzamide]
inhibition at 1 µM (HDAC1 enzyme): -1%
inhibition at 1 µM (HDAC6 enzyme): 36%

O=C(NCC1COCCN1C(=O)N1CCOCC1)c1ccc(-c2noc(C(F)(F)F)n2)cc1 (stereo in doubt) [Example 99, N-(((3S)-4-(morpholin-4-ylcarbonyl)morpholin-3-yl)methyl)-4-(5-(trifluoromethyl)-1,2,4-oxadiazol-3-yl)benzamide]
inhibition at 1 µM (HDAC1 enzyme): 9%
inhibition at 1 µM (HDAC6 enzyme): 99%

O=C(NCC1COCCN1C(=O)c1ccc(-c2ccccc2)cc1)c1ccc(-c2noc(C(F)(F)F)n2)cc1 (stereo not shown) [Example 23, N-((4-(biphenyl-4-ylcarbonyl)morpholin-3-yl)methyl)-4-(5-(trifluoromethyl)-1,2,4-oxadiazol-3-yl)benzamide]
inhibition at 1 µM (HDAC1 enzyme): 36%
inhibition at 1 µM (HDAC6 enzyme): 95%

O=C(NCC1COCCN1C(=O)C1CCOCC1)c1ccc(-c2noc(C(F)(F)F)n2)cc1 (stereo not shown) [Example 26, N-((4-(tetrahydro-2H-pyran-4-ylcarbonyl)morpholin-3-yl)methyl)-4-(5-(trifluoromethyl)-1,2,4-oxadiazol-3-yl)benzamide]
inhibition at 1 µM (HDAC1 enzyme): 10%
inhibition at 1 µM (HDAC6 enzyme): 95%

Cc1nc2ccccn2c1C(=O)N1CCOCC1CNC(=O)c1ccc(-c2noc(C(F)(F)F)n2)cc1 (stereo in doubt) [Example 92, N-(((3S)-4-((2-methylimidazo[1,2-a]pyridin-3-yl)carbonyl)morpholin-3-yl)methyl)-4-(5-(trifluoromethyl)-1,2,4-oxadiazol-3-yl)benzamide]
inhibition at 1 µM (HDAC1 enzyme): 36%
inhibition at 1 µM (HDAC6 enzyme): 97%

O=C(NCC1CCCN1C(=O)c1ccccc1)c1ccc(-c2noc(C(F)(F)F)n2)cc1 (stereo not shown) [Example 162, N-((1-benzoylpyrrolidin-2-yl)methyl)-4-(5-(trifluoromethyl)-1,2,4-oxadiazol-3-yl)benzamide]
inhibition at 1 µM (HDAC1 enzyme): 16%
inhibition at 1 µM (HDAC6 enzyme): 97%

O=C(NC[C@H]1COCCN1C(=O)N1CCC(c2ccncc2)C1)c1ccc(-c2noc(C(F)(F)F)n2)cc1 (stereo partly drawn) [Example 295, N-(((3S)-4-((3-(pyridin-4-yl)pyrrolidin-1-yl)carbonyl)morpholin-3-yl)methyl)-4-(5-(trifluoromethyl)-1,2,4-oxadiazol-3-yl)benzamide]
inhibition at 1 µM (HDAC1 enzyme): 8%
inhibition at 1 µM (HDAC6 enzyme): 85%

Cn1nc(C(F)(F)F)cc1C(=O)N1CCOC[C@@H]1CNC(=O)c1ccc(-c2noc(C(F)(F)F)n2)cc1 [Example 64, N-(((3S)-4-((1-methyl-3-(trifluoromethyl)-1H-pyrazol-5-yl)carbonyl)morpholin-3-yl)methyl)-4-(5-(trifluoromethyl)-1,2,4-oxadiazol-3-yl)benzamide]
inhibition at 1 µM (HDAC1 enzyme): 17%
inhibition at 1 µM (HDAC6 enzyme): 93%

O=C(NCC1COCCN1C(=O)c1ccc(F)cc1)c1ccc(-c2noc(C(F)(F)F)n2)cc1 (stereo not shown) [Example 5, N-((4-(4-fluorobenzoyl)morpholin-3-yl)methyl)-4-(5-(trifluoromethyl)-1,2,4-oxadiazol-3-yl)benzamide]
inhibition at 1 µM (HDAC1 enzyme): 21%
inhibition at 1 µM (HDAC6 enzyme): 99%

N#Cc1ccccc1C(=O)N1CCOC[C@@H]1CNC(=O)c1ccc(-c2noc(C(F)(F)F)n2)cc1 [Example 43, N-(((3S)-4-(2-cyanobenzoyl)morpholin-3-yl)methyl)-4-(5-(trifluoromethyl)-1,2,4-oxadiazol-3-yl)benzamide]
inhibition at 1 µM (HDAC1 enzyme): 14%
HDAC6 inhibitory rate (%) (1 μM) (HDAC6 enzyme): 101%

Cc1nonc1C(=O)N1CCOC[C@@H]1CNC(=O)c1ccc(-c2noc(C(F)(F)F)n2)cn1 [Example 194, N-(((3S)-4-((4-methyl-1,2,5-oxadiazol-3-yl)carbonyl)morpholin-3-yl)methyl)-5-(5-(trifluoromethyl)-1,2,4-oxadiazol-3-yl)pyridine-2-carboxamide]
inhibition at 1 µM (HDAC1 enzyme): 36%
inhibition at 1 µM (HDAC6 enzyme): 97%

CC(C)(C(=O)N1CCOCC1CNC(=O)c1ccc(-c2noc(C(F)(F)F)n2)s1)c1ccccc1 (stereo not shown) [Example 247, N-((4-(2-methyl-2-phenylpropanoyl)morpholin-3-yl)methyl)-5-(5-(trifluoromethyl)-1,2,4-oxadiazol-3-yl)thiophene-2-carboxamide]
inhibition at 1 µM (HDAC1 enzyme): 18%
inhibition at 1 µM (HDAC6 enzyme): 98%

O=C(NC[C@H]1COCCN1C(=O)N1CCCC1CCO)c1ccc(-c2noc(C(F)(F)F)n2)cc1 (stereo partly drawn) [Example 306, N-(((3S)-4-((2-(2-hydroxyethyl)pyrrolidin-1-yl)carbonyl)morpholin-3-yl)methyl)-4-(5-(trifluoromethyl)-1,2,4-oxadiazol-3-yl)benzamide]
HDAC1 inhibitory rate (%) (1 μM) (HDAC1 enzyme): 5%
HDAC6 inhibitory rate (%) (1 μM) (HDAC6 enzyme): 88%

O=C(NC[C@H]1COCCN1C(=O)c1cc(Cl)cc(Cl)c1)c1ccc(-c2noc(C(F)(F)F)n2)cc1 [Example 37, N-(((3S)-4-(3,5-dichlorobenzoyl)morpholin-3-yl)methyl)-4-(5-(trifluoromethyl)-1,2,4-oxadiazol-3-yl)benzamide]
HDAC1 inhibitory rate (%) (1 μM) (HDAC1 enzyme; 1 µM): 27%
HDAC6 inhibitory rate (%) (1 μM) (HDAC6 enzyme): 98%

CC(C)(C(=O)N1CCOCC1CNC(=O)c1ccc(-c2noc(C(F)(F)F)n2)cc1)c1ccccc1 (stereo in doubt) [Example 95, N-(((3S)-4-(2-methyl-2-phenylpropanoyl)morpholin-3-yl)methyl)-4-(5-(trifluoromethyl)-1,2,4-oxadiazol-3-yl)benzamide]
inhibition at 1 µM (HDAC1 enzyme): 30%
inhibition at 1 µM (HDAC6 enzyme): 99%

Cc1nonc1C(=O)N1CCOC[C@H]1CNC(=O)c1ccc(-c2noc(C(F)(F)F)n2)cc1 [Example 132, N-(((3R)-4-((4-methyl-1,2,5-oxadiazol-3-yl)carbonyl)morpholin-3-yl)methyl)-4-(5-(trifluoromethyl)-1,2,4-oxadiazol-3-yl)benzamide]
inhibition at 1 µM (HDAC1 enzyme): 16%
inhibition at 1 µM (HDAC6 enzyme): 98%

O=C(NCC1COCCN1C(=O)C(F)(F)c1ccccc1)c1ccc(-c2noc(C(F)(F)F)n2)cc1 (stereo in doubt) [Example 96, N-(((3S)-4-(difluoro(phenyl)acetyl)morpholin-3-yl)methyl)-4-(5-(trifluoromethyl)-1,2,4-oxadiazol-3-yl)benzamide]
inhibition at 1 µM (HDAC1 enzyme): 40%
inhibition at 1 µM (HDAC6 enzyme): 98%

Cc1ccccc1C(=O)N1CCOCC1CNC(=O)c1ccc(-c2noc(C(F)(F)F)n2)cc1 (stereo not shown) [Example 9, N-((4-(2-methylbenzoyl)morpholin-3-yl)methyl)-4-(5-(trifluoromethyl)-1,2,4-oxadiazol-3-yl)benzamide]
inhibition at 1 µM (HDAC1 enzyme): 21%
inhibition at 1 µM (HDAC6 enzyme): 99%

O=C(NC[C@H]1COCCN1C(=O)C1CCOC1)c1ccc(-c2noc(C(F)(F)F)n2)cc1 (stereo partly drawn) [Example 79, N-(((3S)-4-(tetrahydrofuran-3-ylcarbonyl)morpholin-3-yl)methyl)-4-(5-(trifluoromethyl)-1,2,4-oxadiazol-3-yl)benzamide]
inhibition at 1 µM (HDAC6 enzyme): 94%
